In series [1] the test system is Mycosphaerella arachidis (Cercospora arachidicola). As to the kind of experiment: Example B-2: Action against Mycosphaerella arachidis, fungal growth assay. The note with it: 0.002% active ingredient, PDB broth, 24° C., photometric after 6-7 days. It is filed as cell-based. The protocol:
(§1) Action Against Mycosphaerella arachidis (Early Leaf Spot of Groundnut; Cercospora arachidicola [fanamorph])—Fungal Growth Assay Conidia of the fungus from cryogenic storage were directly mixed into nutrient broth (PDB potato dextrose broth). After placing a (DMSO) solution of the test compounds (0.002% active ingredient) into a microtiter plate (96-well format) the nutrient broth containing the fungal spores was added. The test plates were incubated at 24° C. and the inhibition of growth was measured photometrically after 6-7 days. The activity of a compound was expressed as fungal growth inhibition (0=no growth inhibition, ratings of 80% to 99% mean good to very good inhibition, 100%=complete inhibition).

In series [2] the test system is Septoria tritici. As to the kind of experiment: Example B-3: Action against Septoria tritici, fungal growth assay. The conditions noted are these: Zymoseptoria tritici; 0.002% active ingredient; PDB broth, 24° C., photometric after 72 hrs. It is filed as cell-based. The protocol:
as §1, with “Septoria tritici—Fungal” for “Mycosphaerella arachidis (Early Leaf Spot of Groundnut; Cercospora arachidicola [fanamorph])—Fungal”, “determined” for “measured”, “72 hrs.” for “6-7 days.”

The test system of series [3] is Erysiphe graminis f. sp. tritici. In words: Example B-5: Action against Erysiphe graminis f. sp. tritici (wheat powdery mildew), wheat leaf segments. The series is classed as in vivo. The note with it: Blumeria graminis, foliar, 168 h, 0.02% active ingredient, 7 days after inoculation, read-out: preventive fungicidal activity (inhibition). The protocol:
Action Against Erysiphe graminis f. sp. tritici (Wheat Powdery Mildew) Wheat leaf segments were placed on agar in multiwell plates (24-well format) and sprayed with test solutions (0.02% active ingredient). After drying, the leaf disks were inoculated with a spore suspension of the fungus. After appropriate incubation the activity of a compound was assessed 7 days after inoculation as preventive fungicidal activity.

Series [4] concerns Puccinia recondita. In words: Example B-6: Protective action against Puccinia recondita (brown rust) on wheat leaf segments. The series is classed as in vivo. The note with it: foliar, 192 h, 0.02% active ingredient, 8 days after inoculation, read-out: preventive fungicidal activity (inhibition). As for the experimental part:
Protective Action Against Puccinia recondita (Brown Rust) on Wheat Wheat leaf segments were placed on agar in multiwell plates (24-well format) and sprayed with test solutions (0.02% active ingredient). After drying, the leaf disks were inoculated with a spore suspension of the fungus. After appropriate incubation the activity of a compound was assessed 8 days after inoculation as preventive fungicidal activity.

The subject of series [5] is Pyrenophora teres. In words: Example B-8: Action against Pyrenophora teres (net blotch) on barley leaf segments. It is filed as in vivo. The conditions noted are these: foliar, 96 h, 0.02% active ingredient, 4 days after inoculation, read-out: preventive fungicidal activity (inhibition). The protocol:
Action Against Pyrenophora teres (Net Blotch) on Barley Barley leaf segments were placed on agar in multiwell plates (24-well format) and sprayed with test solutions (0.02% active ingredient). After drying, the leaf disks were inoculated with a spore suspension of the fungus. After appropriate incubation the activity of a compound was assessed 4 days after inoculation as preventive fungicidal activity.

Series [6] deals with Botrvtis cinerea. In words: Example B-1: Action against Botrytis cinerea, fungal growth assay. The series is classed as cell-based. The note with it: 0.002% active ingredient, PDB broth, 24° C., photometric after 3-4 days. The protocol:
as §1, with “Action against Botrvtis cinerea—fungal growth assay” for “Action Against Mycosphaerella arachidis (Early Leaf Spot of Groundnut; Cercospora arachidicola [fanamorph])—Fungal Growth Assay”, “storage was” for “storage were”, “after 3-4” for “after 6-7”

For series [7], the system named is Puccinia recondita. In words: Example B-7: Curative action against Puccinia recondita (brown rust) on wheat leaf segments. The series is classed as in vivo. The conditions noted are these: 0.02% active ingredient sprayed one day after inoculation, 8 days after inoculation; for inhibition at 0.02 % strength: Puccinia recondita, foliar, read-out: curative fungicidal activity (inhibition). As for the experimental part: Curative Action Against Puccinia recondita (Brown Rust) on Wheat Wheat leaf segments were placed on agar in multiwell plates (24-well format) and inoculated with a spore suspension of the fungus. One day after inoculation the leaf segments were sprayed with test solutions (0.02% active ingredient). After appropriate incubation the activity of a compound was assessed 8 days after inoculation as curative fungicidal activity.

We go through six molecules from patent US8357634B2, “N-alkoxycarboxamides and their use as microbiocides” (Syngenta Crop Protection LLC, priority 2009, dated 2013).

`CON(C(=O)c1cn(C)nc1C(F)F)C(C)c1ccc(I)cc1` (stereo not drawn) [Compound 1.003, 3-difluoromethyl-1-methyl-1H-pyrazole-4-carboxylic acid [1-(4-iodo-phenyl)-ethyl]-methoxy-amide]: the melting point is 72 to 74 °C. Moreover, the inhibition at 0.002 % strength in series [1] was ≥ 80%. Also, the inhibition at 0.002 % strength in series [2] was ≥ 80%. The inhibition at 0.02 % strength in series [3] is ≥ 80%. For the same molecule, the inhibition at 0.02 % strength in series [4] is ≥ 80%. Further, the inhibition at 0.02 % strength in series [5] is ≥ 80%.

As to `CON(C(=O)c1cn(C)nc1C(F)F)C(C)c1cccc(I)c1` (stereo not drawn) [Compound 1.014, 3-Difluoromethyl-1-methyl-1H-pyrazole-4-carboxylic acid [1-(3-iodo-phenyl)-ethyl]-methoxy-amide], the melting point was in the range of 136 to 138 °C. Also, in series [6], the inhibition at 0.002 % strength is ≥ 80%. For the same molecule, the inhibition at 0.002 % strength in series [1] was ≥ 80%. The inhibition at 0.002 % strength in series [2] was ≥ 80%. Besides, in series [3], the inhibition at 0.02 % strength was ≥ 80%. For the same molecule, the inhibition at 0.02 % strength in series [4] is ≥ 80%. The inhibition at 0.02 % strength in series [7] is ≥ 80%. The inhibition at 0.02 % strength in series [5] was ≥ 80%.

The molecule `CON(C(=O)c1cn(C)nc1C(F)F)C(C)c1cccc(-c2ccc(Cl)c(Cl)c2)c1` (stereo not drawn) [Compound 1.020, 3-difluoromethyl-1-methyl-1H-pyrazole-4-carboxylic acid [1-(3′,4′-dichloro-biphenyl-3-yl)-ethyl]-methoxy-amide] had a melting point of 162 to 164 °C. Also, the inhibition at 0.002 % strength in series [6] is ≥ 80%. For the same molecule, in series [1], the inhibition at 0.002 % strength is ≥ 80%. Also, the inhibition at 0.002 % strength in series [2] is ≥ 80%. Further, the inhibition at 0.02 % strength in series [4] is ≥ 80%. Besides, the inhibition at 0.02 % strength in series [5] was ≥ 80%.

As to `CON(Cc1ccc(Cl)cc1Cl)C(=O)c1cn(C)nc1C(F)F` [Compound 1.091, 3-difluoromethyl-1-methyl-1H-pyrazole-4-carboxylic acid (2,4-dichlorobenzyl)-methoxy-amide], the inhibition at 0.002 % strength in series [1] and in series [2] was ≥ 80% throughout. The inhibition at 0.02 % strength in series [4] was ≥ 80%; in series [7], 50%; in series [5], ≥ 80%.

As for `CON(Cc1cccc(I)c1)C(=O)c1cn(C)nc1C(F)F` [Compound 1.097, 3-difluoromethyl-1,1-dimethyl-1H-pyrazole-4-carboxylic acid (3-iodo-benzyl)-methoxy-amide], the melting point was in the range of 114 to 116 °C. Also, the inhibition at 0.002 % strength in series [6] was ≥ 80%. In addition, the inhibition at 0.002 % strength in series [1] is ≥ 80%. For the same molecule, the inhibition at 0.002 % strength in series [2] is ≥ 80%.

For the molecule `CON(C(=O)c1cn(C)nc1C(F)F)C(CF)c1ccc(Cl)cc1` (stereo not drawn) [Compound 1.107], the “curative fungicidal activity (inhibition)” value in series [7] turned out to be 50%.

The inhibition is the drop in the measured response relative to a control, in per cent. As a reminder, the melting point is the temperature of the solid-liquid transition.
